Experimental data from patent US20100251434A1, “METHOD FOR GROWING SUGARCANE” (SYNGENTA CROP PROTECTION, INC., priority 2007, published 2010).

Legend:
Settings in all cases: for Culm Diameter / Leaf Width / Plant Height / Tillers: 42 days after planting
[1] = system: sugar cane Variety RB 86-7515; assay: Greenhouse pot test, effect of formulated abamectin on vigour; format: in vivo
Description: Greenhouse test with sugarcane buds growing in pots were conducted to study the effect of formulated abamectin regarding “vigour”, tillers, plant height, leaf width and culm diameter on sugar cane Variety RB 86-7515.
1) carretel with one bud treated with abamectin 2) carretel with one bud treated with abamectin+15% v/v of polymer 3) stalk with 3 buds untreated 4) carretel with one bud untreated 5) carretel with one bud untreated+15% v/v of polymer 6) stalk with 3 buds treated with abamectin.
Twenty 1 L pots were filled with 16 L of clay soil, 1.6 L of sand and 8 g of nitrogen, 28 g of phosphorus (P2O5) and 16 g of potassium (K2O). Six carretels of 4 cm length with only one bud were planted in each pot (treatments 1, 2, 4 and 5). Two stalks with three buds were planted in each control pot (treatments 3 and 6) to simulate conventional planting. A layer of 3 cm of soil was used to cover the carretels. The carretels of treatments 1, 2 were treated with 200 ml/ha of abamectin, by dipping the carretels in the slurry for 3 min, based on the uptake capacity of carretels. The stalks were treated simulating a furrow application at 100 L.ha^−1 of slurry. Experimental design adopted was randomized complete block with four replications. The pots were maintained with adequate moisture during the test. Evaluations of: plant height, leaf width, culm diameter and number of tillers were done at 20, 30 and 42 days after planting.

[2] = system: sugar cane Variety RB 86-7515; assay: Greenhouse pot test, effect of formulated clothianidin on vigour; format: in vivo
Description: Greenhouse test with sugarcane buds growing in pots were conducted to study the effect of clothianidin equivalent to an application rate of 200 g ai. ha^−1 on “vigour”, evaluating tillers, plant height, leaf width and culm diameter. This trial was conducted on sugar cane Variety RB 86-7515.
1) carretel with one bud treated with clothianidin (200 g ai. ha^−1) 2) carretel with one bud treated with clothianidin (200 g ai. ha^−1)+15% v/v of polymer 3) stalk with 3 buds untreated 4) carretel with one bud untreated+15% v/v of polymer 5) carretel with one bud untreated 6) stalk with 3 buds treated with clothianidin (200 g ai. ha^−1).
Twenty 1 L pots were filled with 16 L of clay soil, 1.6 L of sand and 8 g of nitrogen, 28 g of phosphorus (P2O5) and 16 g of potassium (K2O). Six carretels of 4 cm length with one bud were planted in each pot (treatments 1, 2, 4 and 5). Two stalks with three buds were planted in each control pot (treatments 3 and 6) to simulate conventional planting. A layer of 3 cm of soil was used to cover the carretels. The carretels of treatments 1 and 2 were treated with 200 g ai.ha^−1 of clothianidin, by dipping the carretels in a slurry for 3 min. The stalks were treated simulating a furrow application at 100 L.ha^−1 of slurry. The pots were maintained with adequate moisture during the test. Evaluations of: plant height, leaf width, culm diameter and number of tillers were performed at 20, 30 and 42 days after planting.

[3] = system: sugarcane Variety RB 86-7515; assay: Greenhouse pot test, effect of formulated thiamethoxam on vigour; format: in vivo, sugar cane
Description: This trial was conducted on Variety RB 86-7515.

[4] = system: sugar cane Variety RB 86 7515; assay: Greenhouse pot test, effect of formulated imidacloprid on vigour; format: in vivo
Description: 1) carretel with one bud treated with Imidacloprid (1200 g. ha^−1) 2) carretel with one bud treated with Imidacloprid (1200 g. ha^−1)+15% v/v of polymer 3) stalk with 3 buds untreated 4) carretel with one bud untreated 5) carretel with one bud untreated+15% v/v of polymer 6) stalk with 3 buds treated with Imidacloprid (1200 g. ha^−1).
Twenty 1 L pots were filled with 16 L of clay soil, 1.6 L of sand and 8 g of nitrogen, 28 g of phosphorus (P2O5) and 16 g of potassium (K2O). Six carretels of 4 cm length with one bud were planted in each pot (treatments 1, 2, 4 and 5). Two stalks with three buds were planted in each control pot (treatments 3 and 6) to simulate conventional planting. A layer of 3 cm of soil was used to cover the carretels. The carretels of treatments 1 and 2 were treated with 1200 g ai.ha^−1 of imidacloprid, by dipping the carretels in the slurry for 3 min, based on the uptake capacity of carretels. The stalks were treated simulating a furrow application at 100 L.ha^−1 of slurry. Experimental design adopted was randomized complete block with four replications. The pots were maintained with adequate moisture during the test. Evaluations of: plant height, leaf width, culm diameter and number of tillers were done at 20, 30 and 42 days after planting.

[5] = system: sugar cane Variety RB 86-7515; assay: Greenhouse pot test, effect of formulated fipronil on vigour; format: in vivo
Description: Greenhouse test with sugarcane buds growing in pots were conducted to study the effect of fipronil equivalent to an application rate of 200 g. ha^−1 on “vigour”, evaluating tillers, plant height, leaf width and culm diameter on sugar cane Variety RB 86-7515.
1) carretel with one bud treated with fipronil (200 g. ha^−1) 2) carretel with one bud treated with fipronil (200 g. ha^−1)+15% v/v of polymer 3) stalk with 3 buds untreated 4) carretel with one bud untreated 5) carretel with one bud untreated+15% v/v of polymer 6) stalk with 3 buds treated with fipronil (200 g. ha-1).
Twenty 1 L pots were filled with 16 L of clay soil, 1.6 L of sand and 8 g of nitrogen, 28 g to of phosphorus (P2O5) and 16 g of potassium (K2O). Six carretels of 4 cm length with one bud were planted in each pot (treatments 1, 2, 4 and 5). Two stalks with three buds were planted in each control pot (treatments 3 and 6) to simulate conventional planting. A layer of 3 cm of soil was used to cover the carretels. The carretels of treatments 1 and 2 were treated with 200 g ai.ha^−1 of fipronil, by dipping the carretels in the slurry for 3 min, based on the uptake capacity of carretels. The stalks were treated simulating a furrow application at 100 L.ha^−1 of slurry. Experimental design adopted was randomized complete block with four replications. The pots were maintained with adequate moisture during the test. Evaluations of: plant height, leaf width, culm diameter and number of tillers were done at 20, 30 and 42 days after planting.

[6] = carretel with one bud, dipped in slurry, 100 g ai/ha (0.0 for Untreated + Polymer)
[7] = stalk with 3 buds, simulated furrow application, 100 g ai/ha
[8] = carretel with one bud, dipped in slurry, 200 g ai/ha (0.0 for Untreated + polymer)
[9] = stalk with 3 buds, simulated furrow application, 200 g ai/ha
[10] = carretel with one bud, dipped in slurry, 420 g ai/ha (0.0 for Untreated + Polymer)
[11] = stalk with 3 buds, simulated furrow application, 420 g ai/ha
[12] = carretel with one bud, dipped in slurry, 1200 g ai/ha (0.0 for Untreated + Polymer)
[13] = stalk with 3 buds, simulated furrow application, 1200 g ai/ha

## abamectin
[1]; [6]
  Culm Diameter: 7.67 mm
  Leaf Width: 14.58 mm
  Plant Height: 22.22 cm
  Tillers: 14 number
[1]; result in words
  number of tillers in comparison with the control: increase in the number of tillers
  plant height in comparison with the control: decrease in plant height
[1]; [7]
  Culm Diameter: 12.25 mm
  Leaf Width: 20.33 mm
  Plant Height: 22.54 cm
  Tillers: 19.5 number

## CN/C(=N\[N+](=O)[O-])NCc1cnc(Cl)s1 [Clothianidin, clothianidin]
[2]; [8]
  Culm Diameter: 8.75 mm
  Leaf Width: 17.17 mm
  Plant Height: 25.02 cm
  Tillers: 14.5 number
[2]; result in words, carretels
  number of tillers in comparison with the corresponding control (untreated, one-bud): increased number of tillers
  plant height in comparison with the corresponding control (untreated, one-bud): slight reduction in the plant height
[2]; [9]
  Culm Diameter: 11.25 mm
  Leaf Width: 21.5 mm
  Plant Height: 22.73 cm
  Tillers: 17.0 number

## CN1COCN(Cc2cnc(Cl)s2)/C1=N\[N+](=O)[O-] [Thiamethoxam, thiamethoxam]
[3]; [10]
  Culm Diameter: 7.97 mm
  Leaf Width: 14.07 mm
  Plant Height: 23.67 cm
  Tillers: 15.5 number
[3]; result in words, carretels
  number of tillers in comparison with the corresponding controls: increased number of tillers
  plant height in comparison with the corresponding controls: reduced plant height
[3]; result in words, not apparent from the listed parameters
  increase in "quality" compared with the other treatments: increase in “quality” greater than the other treatments
[3]; [11]
  Culm Diameter: 10.17 mm
  Leaf Width: 19.5 mm
  Plant Height: 26.52 cm
  Tillers: 14.75 number

## O=[N+]([O-])NC1=NCCN1Cc1ccc(Cl)nc1 [Imidacloprid]
[4]; [12]
  Culm Diameter: 8.75 mm
  Leaf Width: 15.91 mm
  Plant Height: 24.0 cm
  Tillers: 15.25 number
[4]; result in words
  effect on vigour compared with the other active ingredients: less pronounced than with the other active ingredients
  number of tillers in comparison with the control: increase in the number of tillers
[4]; [13]
  Culm Diameter: 9.49 mm
  Leaf Width: 20.16 mm
  Plant Height: 23.49 cm
  Tillers: 12.0 number

## N#Cc1nn(-c2c(Cl)cc(C(F)(F)F)cc2Cl)c(N)c1[S+]([O-])C(F)(F)F (stereo not drawn) [Fipronil, fipronil]
[5]; [8]
  Culm Diameter: 8.69 mm
  Leaf Width: 14.16 mm
  Plant Height: 20.62 cm
  Tillers: 17.25 number
[5]; result in words
  height of the resultant plants in comparison with the control: decreased the height of the resultant plants
  number of tillers in comparison with the control: increased the number of tillers
[5]; [9]
  Culm Diameter: 10.75 mm
  Leaf Width: 18.91 mm
  Plant Height: 22.12 cm
  Tillers: 16.5 number
